This is an account of results in US20080138812A1, “Screening Method For Competitive Hiv Rt Inhibitors” (priority 2005, published 2008).

For test [1], the system named is wild-type HIV-1 (LAI strain). Put plainly: anti-viral cellular assay, HIV-infected MT4 cells, MTT readout, wild-type virus. In kind it is cell-based. To be noted: Human immunodeficiency virus 1, 120 h, five days. Here is the method: The test compounds are examined for anti-viral activity in a cellular assay performed according to the following procedure.
(§1) HIV- or mock-infected MT4 cells were incubated for five days in the presence of various concentrations of the test compound. At the end of the incubation period, the replicating virus in the control cultures had killed all HIV-infected cells in the absence of any inhibitor. Cell viability was determined by measuring the concentration of MTT, a yellow, water soluble tetrazolium dye that is converted to a purple, water insoluble formazan in the mitochondria of living cells only. Upon solubilization of the resulting formazan crystals with isopropanol, the absorbance of the solution was monitored at 540 nm. The values correlate directly to the number of living cells remaining in the culture at the completion of the five day incubation. The inhibitory activity of the compound was monitored on the virus-infected cells and was expressed as EC50 and EC90. These values represent the amount of the compound required to protect 50% and 90%, respectively, of the cells from the cytopathogenic effect of the virus. […] Wherever results are reported as e.g. pEC50 or pCC50 values, the result is expressed as the negative logarithm of the result expressed as EC50 or CC50 respectively.

In test [2] the test system is site-directed mutant of wild-type HIV-1 (HXB2) that contains the K103N and Y181C mutation. Put plainly: anti-viral cellular assay, MT4 cells, MTT readout, NNRTI-resistant mutant virus. In kind it is cell-based. To be noted: Human immunodeficiency virus 1, HXB2, MT4. The procedure:
as §1, with “virus. The toxicity of the compound was measured on the mock-infected cells and was expressed as CC50, which represents the concentration of compound required to inhibit the growth of the cells by 50%.” for “virus.”, “respectively. […]” for “respectively.”

In test [3] the target is HIV RT (Human immunodeficiency virus type 1 group M subtype B, UniProt P04585). Put plainly: enzyme kinetics studies (1/v versus 1/[dTTP]). It counts as biochemical. To be noted: 40-3 μM dTTP, 2-0 μM compound, poly(rA)oligo(dT); lines cross at Y-axis intercept. Here is the method: The enzyme kinetics studies were carried out using a protocol involving a 4×5 matrix of varying substrate and inhibitor concentrations over ranges of 40-3 μM of dTTP and 2-0 μM of compound 1.
The reaction mixtures (50 μl) further contained 50 mM Tris.HCl (pH 7.8), 5 mM dithiothreitol, […], 500 μM EDTA, 150 mM KCl, 5 mM MgCl2, 0.15 mM of the template/primer poly(rA)oligo(dT) and 0.06% Triton X-100.
The reaction mixtures were incubated at 37° C. for 15 min, at which time 100 μl of calf thymus DNA (150 pg/ml), 2 ml of Na4P2O7 (0.1 M in 1 M HCl), and 2 ml of trichloroacetic acid (10% v/v) were added. The solutions were kept on ice for 30 min, after which the acid-insoluble material was washed and analyzed for radioactivity. When the reciprocal of the reaction velocity (1/v) is plotted against the reciprocal of the substrate concentration (1/[dTTP]) in the presence of different concentrations of compound 1, the graph (See FIG. 1) is obtained.

Test [4] concerns the target T1, HIV Reverse Transcriptase (Human immunodeficiency virus type 1 group M subtype B, UniProt P04585).
T1 construct: purchased Amersham Life Sciences TRK 1022
Description: in vitro inhibition of HIV reverse transcriptase in presence and absence of ATP or other nucleoside phosphates (kit TRK 1022). In kind it is biochemical. Here is the method:
The assay was run using kit TRK 1022™ (Amersham Life Sciences) according to the manufacturer's instructions with slight modifications. Test compounds were diluted in steps of ¼ in 100% DMSO and subsequently diluted 1/50 in Medium A (RPMI 1640+10% fetal calf serum, […] gentamycin).
In each experiment three conditions were tested: wells filled with 25 μl of the above compound solutions, wells filled with 25 μl 2% DMSO in Medium A (RO) and wells filled with 100 μl Stopsolution and 25 μl DMSO in Medium A (RI). To each well was added 25.5 μl master mix (5 μl primer/template beads, 10 μl assay buffer, 0.5 μl tracer (50 μM [3H]-dTTP), 5 μl HIV RT enzyme solution (15 mU/μl), 5 μl Medium A). The plates were sealed, and incubated during 4 hours at 37° C. Subsequently, 100 μl stop solution was added to each well (except RI). The radioactivity was counted in a TopCount™.
For testing compound inhibition in the presence of ATP the same protocol as above was used but the Medium A in the master mix was replaced with Medium A containing 320 mM ATP.
The procedures of example 1 were repeated but ATP was changed by a number of other nucleoside phosphates. The following table lists the tested nucleoside phosphates and the IC50 values in μM of compound 1 obtained in the presence of the concerned nucleoside phosphate.

For `Cn1c2ccccc2c2c1cc(C#N)c(=O)n2-c1ccc([N+](=O)[O-])cc1` [Compound 1], the results for the EC50 in test [1] and in test [2] were 45 nM and 98 nM, respectively. For the same compound, the “mode of HIV RT inhibition” value in test [3] is reported as “competitive mode of HIV RT inhibition”. Moreover, the half-inhibitory concentration (IC50) in test [4] (in the absence of ATP) was determined as 300 nM; in test [4] (in the presence of ADP) it was 23 nM; in test [4] (in the presence of AMP) it was 17.8 nM; in test [4] (in the presence of ATP (Medium A in master mix containing 320 mM ATP)), 16 nM; in test [4] (in the presence of ATPbgNH), 24.5 nM; in test [4] (in the presence of ATPgS) it was 12.4 nM. Also, the IC50 in test [4] (in the presence of CTP) was determined as 114 nM; in test [4] (in the presence of GTP), 70.4 nM; in test [4] (in the presence of PPi), 199 nM; in test [4] (in the presence of UTP), 51.9 nM.
